What was measured:
[1] = tested on: Thrombin-stimulated Ca2+ response in HT-29 cells; test: Ca FLIPR TETRA assay, ANTAGONIST mode, stimulation with 1 U/mL Thrombin; assay type: cell-based, human; conditions: Homo sapiens, HT-29 cells, stimulation with 1 U/mL Thrombin
Protocol: (§1) Example 60: Protocol for Testing PAR2 Compounds in ANTAGONIST Mode Using the Ca FLIPR^TETRA Assay (384 Well)
(§2) 23000 HT-29 cells (ATCC# HTB-38) were plated in 384-well black, transparent-flat bottom plates and incubated in 25 uL of 1% FBS/McCoy's media ON at 37° C. under an atmosphere of 5% CO2. The following day, 25 uL FLIPR calcium 5 Molecular Devices assay reagent (Cat: R-8186) was added. Plates were incubated at 37° C. and r. t. for 45 min and 15 min, respectively. Compounds dilutions were prepared in 100% DMSO using a Biomek FX and diluted 20-fold in HBSS and then 5.5 uL was added directly to the cells by the FLIPR^TETRA (10× dilution) using FLIPR Tetra Pipette tips, black, non-sterile, 384 Molecular Devices (Cat: 9000-0764).
(§3) A first read was performed to determine whether the test compounds on their own can activate Ca2+ responses.
(§4) The cells were incubated with the compounds for 30 min at r. t. and then read in ANTAGONIST mode in the same plate by stimulating with 6.2 uL of a fixed concentration of the activator: final concentrations: 8 μM SLIGKV, 1 U/mL Thrombin, 3.1 U/mL trypsin, or 0.6 μM UTP.

[2] = molecular target: T1, PAR2 (HT-29 cells, trypsin activation) (Homo sapiens, UniProt P55085); test: Ca FLIPR TETRA assay, ANTAGONIST mode, stimulation with 3.1 U/mL trypsin; assay type: cell-based; conditions: HT-29 cells, stimulation with 3.1 U/mL trypsin
T1 construct: host or cells: HT-29 cells
T1 sequence (P55085 26-397): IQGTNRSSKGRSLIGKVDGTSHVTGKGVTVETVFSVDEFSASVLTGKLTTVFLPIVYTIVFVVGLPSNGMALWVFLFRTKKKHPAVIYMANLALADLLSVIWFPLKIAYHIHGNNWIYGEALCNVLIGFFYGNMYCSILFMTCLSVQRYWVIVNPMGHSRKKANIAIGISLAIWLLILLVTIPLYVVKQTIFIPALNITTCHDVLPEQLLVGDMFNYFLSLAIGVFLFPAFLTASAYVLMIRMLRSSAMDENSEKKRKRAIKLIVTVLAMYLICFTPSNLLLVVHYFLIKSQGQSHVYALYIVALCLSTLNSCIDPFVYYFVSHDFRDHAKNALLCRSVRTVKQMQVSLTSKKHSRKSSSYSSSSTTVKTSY
Protocol: as §1, §2, §3, §4

[3] = tested on: UTP-stimulated Ca2+ response in HT-29 cells; test: Ca FLIPR TETRA assay, ANTAGONIST mode, stimulation with 0.6 μM UTP; assay type: cell-based, human; conditions: Homo sapiens, HT-29 cells, stimulation with 0.6 μM UTP
Protocol: as §1, §2, §3, §4

[4] = molecular target: T2, PAR2 (HT-29 cells, SLIGKV activation) (Homo sapiens, UniProt P55085); test: Ca FLIPR TETRA assay, ANTAGONIST mode, stimulation with 8 μM SLIGKV; assay type: cell-based; conditions: HT-29 cells, stimulation with 8 μM SLIGKV
T2 construct: host or cells: HT-29 cells
T2 sequence (P55085 26-397): T1 sequence (P55085 26-397)
Protocol: as §1, §2, §3, §4

Row | SMILES | IC50 [1] | IC50 [2] | IC50 [3] | IC50 [4] | IC50 ([1]; antagonist mode) | IC50 ([2]; antagonist mode) | IC50 ([3]; antagonist mode) | IC50 ([4]; antagonist mode)
1 | CC(C)(C)OC(=O)N1CCCN(C(=O)c2cn3nc(-c4ccc(F)cc4)cc(C(F)(F)F)c3n2)CC1 [Compound I-84] | 6400 nM | 1800 nM | 5100 nM | 790 nM |  |  |  | 
2 | CCOCCC(=O)N1CCN(C(=O)c2cn3nc(-c4ccc(F)cc4)cc(C(C)C)c3n2)C[C@@H]1C [Compound I-143] | 22000 nM | 290 nM | 21000 nM | 41 nM |  |  |  | 
3 | CC(C)(O)C(=O)N1CCN(C(=O)c2cn3nc(-c4ccc(F)cc4)cc(C(C)(C)C)c3n2)C(C)(C)C1 [Compound I-198] |  |  |  |  | > 1000 nM | 5.6 nM | > 1000 nM | 4.4 nM
4 | COc1ccc(CC(=O)N2CCN(C(=O)c3cn4nc(-c5ccc(F)cc5)cc(C(C)C)c4n3)C[C@@H]2C)cc1 [Compound I-133] | 36000 nM | 6 nM | > 500 nM | 1 nM |  |  |  | 
5 | CCc1cc(-c2ccc(F)cc2)nn2cc(C(=O)N3CCN(C(=O)C(C)(C)O)CC3(C)C)nc12 [Compound I-161] | 140000 nM | 330 nM | 72000 nM | 200 nM |  |  |  | 
6 | CC(C)c1cc(-c2ccc(F)cc2)nn2cc(C(=O)N3CCN(C)C(=O)C3(C)C)nc12 [Compound I-181] | 10000 nM | 11 nM | 5800 nM | 10 nM |  |  |  | 
7 | CC(C)N1CCN(C(=O)c2cn3nc(-c4ccc(F)cc4)cc(C(C)(C)C)c3n2)C(C)(C)C1=O [Compound I-207] |  |  |  |  | > 1000 nM | 8.3 nM | > 1000 nM | 9.8 nM
8 | CCc1cc(-c2ccc(F)cc2)nn2cc(C(=O)N3CCN(C(=O)[C@H](O)C(C)(C)C)[C@@H](C)C3)nc12 [Compound I-172] | 15000 nM | 330 nM | 15000 nM | 22 nM |  |  |  | 
9 | COCC(C)(C)c1cc(-c2ccc(F)cc2)nn2cc(C(=O)N3CCNC(=O)C3(C)C)nc12 [Compound I-193] |  |  |  |  | 10000 nM | 46 nM | 19000 nM | 5.3 nM
10 | CCCCC(O)C(=O)N1CCN(C(=O)c2cn3nc(-c4ccc(F)cc4)cc(C(C)C)c3n2)C[C@@H]1C (stereo partly drawn) [Compound I-107] | 10000 nM | 4 nM | 9600 nM | 1 nM |  |  |  | 
11 | CC(C)CC(=O)N1CCN(C(=O)c2cn3nc(-c4ccc(F)cc4)cc(C(C)C)c3n2)C[C@@H]1C [Compound I-122] | 10000 nM | 23 nM | 10000 nM | 7 nM |  |  |  | 
12 | C#CCCC(=O)N1CCN(C(=O)c2cn3nc(-c4ccc(F)cc4)cc(C(C)C)c3n2)C[C@@H]1C [Compound I-126] | 13000 nM | 210 nM | 13000 nM | 25 nM |  |  |  | 
13 | CC(C)(C)c1cc(-c2ccc(F)cc2)nn2cc(C(=O)N3CCN(C4COC4)C(=O)C3(C)C)nc12 [Compound I-210] |  |  |  |  | > 1000 nM | 3.5 nM | > 1000 nM | 4 nM
14 | C[C@H]1CN(c2cc(-c3ccc(F)cc3)nn3cc(C(=O)N4CCNC(=O)C4(C)C)nc23)C[C@H](C)O1 [Compound I-183] |  |  |  |  | 840 nM | 33.6 nM | 810 nM | 15 nM
15 | COCCC(=O)N1CCN(C(=O)c2cn3nc(-c4ccc(F)cc4)cc(C(C)C)c3n2)C[C@@H]1C [Compound I-129] | 41000 nM | 500 nM | 37000 nM | 120 nM |  |  |  | 
16 | Cc1cc(-c2ccc(F)cc2)nn2cc(C(=O)N3CCN(C(=O)OC(C)(C)C)[C@@H](C)C3)nc12 [Compound I-2, tert-Butyl (2S)-4-[6-(4-fluorophenyl)-8-methyl-imidazo[1,2-b]pyridazine-2-carbonyl]-2-methyl-piperazine-1-carboxylate] | 6100 nM | 2400 nM | 4700 nM | 860 nM |  |  |  | 
17 | CC(C)c1cc(-c2ccc(F)cc2)nn2cc(C(=O)N3CCN(C(=O)C4(N)CCCCC4)[C@@H](C)C3)nc12 [Compound I-156] | 21000 nM | 6800 nM | 17000 nM | 1400 nM |  |  |  | 
18 | CCc1cc(-c2ccc(F)cc2)nn2cc(C(=O)N3CCN(C(=O)[C@H](O)C(C)C)[C@@H](C)C3)nc12 [Compound I-168] | 16000 nM | 350 nM | 13000 nM | 67 nM |  |  |  | 
19 | CCc1cc(-c2ccc(F)cc2)nn2cc(C(=O)N3CCN(C(=O)[C@H](O)CC4CC4)[C@@H](C)C3)nc12 [Compound I-170] | 33000 nM | 38 nM | 30000 nM | 14 nM |  |  |  | 
20 | CC(C)(O)c1cc(-c2ccc(F)cc2)nn2cc(C(=O)N3CCNC(=O)C3(C)C)nc12 [Compound I-184, 4-[6-(4-fluorophenyl)-8-(1-hydroxy-1-methyl-ethyl)imidazo[1,2-b]pyridazine-2-carbonyl]-3,3-dimethyl-piperazin-2-one] |  |  |  |  | 1450 nM | 182 nM | 1950 nM | 125 nM
21 | CC(C)c1cc(-c2ccc(F)cc2)nn2cc(C(=O)N3CCN(C(=O)[C@H](O)CC(C)(C)C)C[C@H]3C)nc12 [Compound I-196] |  |  |  |  | > 1000 nM | 20 nM | > 1000 nM | 20.5 nM
22 | CCC1(C)C(=O)NCCN1C(=O)c1cn2nc(-c3ccc(F)cc3)cc(C(C)C)c2n1 (stereo not drawn) [Compound I-179] | 6900 nM | 11 nM | 8500 nM | 3 nM |  |  |  | 

Continued, values first:

Row | IC50 [1] | IC50 [2] | IC50 [3] | IC50 [4] | IC50 ([1]; antagonist mode) | IC50 ([2]; antagonist mode) | IC50 ([3]; antagonist mode) | IC50 ([4]; antagonist mode) | SMILES
23 |  |  |  |  | 8600 nM | 0.9 nM | 4100 nM | 1 nM | CC(C)(C)c1cc(-c2ccc(Cl)cc2)nn2cc(C(=O)N3CCN(C(=O)C4CC(C(=O)O)C4)CC3(C)C)nc12 (stereo not drawn) [Compound I-489]
24 |  |  |  |  | > 1000 nM | 7.9 nM | > 1000 nM | 4.7 nM | CC(C)(C)c1cc(C2CCC(F)(F)CC2)nn2cc(C(=O)N3CCN(C(=O)[C@H]4CC[C@@H](C(=O)O)CC4)CC3(C)C)nc12 [Compound I-533]
25 |  |  |  |  | 820 nM | 5.6 nM | 690 nM | 4 nM | CC(C)(C)c1cc(-c2ccc(F)cc2)nn2cc(C(=O)N3CCN(C(=O)C4CC(C(=O)O)C4)CC3(C)C)nc12 (stereo not drawn) [Compound I-492]
26 |  |  |  |  | > 1000 nM | 6.9 nM | > 1000 nM | 11.4 nM | Cc1ccc(-c2cc(C(C)C)c3nc(C(=O)N4CCN(C(=O)c5nc[nH]n5)CC4(C)C)cn3n2)cc1 [Compound I-331]
27 |  |  |  |  | > 1000 nM | 1.3 nM | > 1000 nM | 0.8 nM | CC(C)(C)c1cc(-c2ccc(Cl)cc2)nn2cc(C(=O)N3CCN(C(=O)c4ccccn4)CC3(C)C)nc12 [Compound I-444]
28 |  |  |  |  | > 1000 nM | 235 nM | > 1000 nM | 170 nM | CC(C)(C)c1cc(-c2ccc(N=[N+]=[N-])cc2)nn2cc(C(=O)N3CCNC(=O)C3(C)C)nc12 [Compound I-536]
29 |  |  |  |  | > 1000 nM | 0.3 nM | 710 nM | 0.1 nM | Cc1nc(C(=O)N2CCN(C(=O)c3cn4nc(-c5ccc(Cl)c(F)c5)cc(C(C)(C)C)c4n3)C(C)(C)C2)n[nH]1 [Compound I-451]
30 |  |  |  |  | > 1000 nM | 1.2 nM | > 1000 nM | 0.7 nM | Cc1ncc(C(=O)N2CCN(C(=O)c3cn4nc(-c5ccc(Cl)c(F)c5)cc(C(C)(C)C)c4n3)C(C)(C)C2)[nH]1 [Compound I-453]
31 |  |  |  |  | > 1000 nM | 104 nM | > 1000 nM | 56 nM | CC(C)(C)C1CC(c2ccc(F)cc2)=Nn2cc(C(=O)N3CCNC(=O)C3(C)C)nc21 (stereo not drawn) [Compound I-446]
32 |  |  |  |  | > 1000 nM | 14.2 nM | > 1000 nM | 16 nM | CC(C)c1cc(-c2ccc(C(F)(F)F)cc2)nn2cc(C(=O)N3CCN(C(=O)c4cccnn4)CC3(C)C)nc12 [Compound I-282]
33 |  |  |  |  | > 1000 nM | 1.7 nM | > 1000 nM | 1.5 nM | Cc1ccc(-c2cc(C(C)(C)C)c3nc(C(=O)N4CCN(c5cn[nH]c5)C(=O)C4(C)C)cn3n2)cc1 [Compound I-364]
